Measured values reported in patent US10759810B2 (AO “TATKHIMFARMPREPARATY”, priority 2016, dated 2020).

What was measured:
Format in all cases: cell-based
[1] = test system: gram-positive microorganisms; assay: Antibacterial activity (MIC), gram-positive strains; conditions: in words, versus comparison drugs
Protocol: (§1) Measurement of antibacterial activity was carried out on the strains of Staphylococcus aureus ATCC 29213 (museum strain), Staphylococcus epidermidis (clinical isolate), Micrococcus luteus (clinical isolate), Bacillus subtilis 168 (museum strain), Escherichia coli ATCC 25922 (museum strain), Salmonella typhimurium TA100 (museum strain), Pseudomonas aeruginosa ATCC 27853 (museum strain). A comparative assessment of the spectrum of antibacterial action on reference strains and clinical isolates of gram-positive microorganisms was carried out using a micromethod for determining the minimum inhibitory concentration (MIC) using serial dilutions in Mueller-Hinton broth using 96-well sterile plates.
(§2) The first lowest concentration of the antibiotic (from a series of successive dilutions), where bacterial growth is not visually determined, is considered to be the minimum inhibitory concentration (MIC).
(§3) For the preparation of inoculum (infectious material used for artificial contamination), intended for the study of antibacterial activity, was used a pure daily culture of bacteria grown on a dense nutrient medium (agar LB medium). […] The inoculum was used for 15 minutes after preparation; the purity of the bacterial strains was monitored before each experiment. […]

[2] = test system: microorganism strains under study; assay: Antibacterial activity (MIC), whole strain panel; conditions: in words, from Table 1
Protocol: as §1, §2, §3

[3] = test system: Salmonella typhimurium TA100 (museum strain); assay: MIC, serial dilutions in Mueller-Hinton broth; conditions: inoculum 10^7 CFU/ml; gram-negative
Protocol: as §1, §2
(§4) For the preparation of inoculum (infectious material used for artificial contamination), intended for the study of antibacterial activity, was used a pure daily culture of bacteria grown on a dense nutrient medium (agar LB medium). In a sterile isotonic solution of sodium chloride, a suspension of microorganisms was prepared, adjusting the inoculum density to 0.5 according to the McFarland standard (1.5·10^8 CFU/ml). Then, the resulting inoculum was diluted to a concentration of 10^7 CFU/ml with LB-broth. The inoculum was used for 15 minutes after preparation; the purity of the bacterial strains was monitored before each experiment.
(§5) 100 μl of Muller-Hinton broth was added to the wells of each plate; the test base was introduced into the first well at a concentration of 128 μg/ml in a volume of 100 μl and its concentration was adjusted to 0.25 μg/ml by consecutive two-fold dilution. […] Each preparation in the experiment was titrated three times. […] In addition, the purity of nutrient media and solvents was monitored. The plates were incubated in a thermostat at […] for 24 hours.
(§6) The growth of cultures was assessed visually, comparing the growth of microorganisms in the presence of test compounds with the growth of culture without them.

[4] = test system: Escherichia coli ATCC 25922 (museum strain); assay: MIC, serial dilutions in Mueller-Hinton broth; conditions: inoculum 10^7 CFU/ml; gram-negative
Protocol: as §1, §2, §4, §5, §6

[5] = test system: Staphylococcus aureus ATCC 29213 (museum strain); assay: MIC, serial dilutions in Mueller-Hinton broth; conditions: inoculum 10^7 CFU/ml; gram-positive
Protocol: as §1, §2, §4, §5, §6

[6] = test system: Pseudomonas aeruginosa ATCC 27853 (museum strain); assay: MIC, serial dilutions in Mueller-Hinton broth; conditions: inoculum 10^7 CFU/ml; gram-negative
Protocol: as §1, §2, §4, §5, §6

[7] = test system: Staphylococcus epidermidis (clinical isolate); assay: MIC, serial dilutions in Mueller-Hinton broth; conditions: inoculum 10^7 CFU/ml; gram-positive
Protocol: as §1, §2, §4, §5, §6

[8] = test system: Micrococcus luteus (clinical isolate); assay: MIC, serial dilutions in Mueller-Hinton broth; conditions: inoculum 10^7 CFU/ml; gram-positive
Protocol: as §1, §2, §4, §5, §6

[9] = test system: Bacillus subtilis 168 (museum strain); assay: MIC, serial dilutions in Mueller-Hinton broth; conditions: inoculum 10^7 CFU/ml; gram-positive
Protocol: as §1, §2, §4, §5, §6

1-cyclopropyl-6-fluoro-7-(4-((5-hydroxy-2,4-bis(hydroxymethyl)-6-methylpyridine-3-yl) methyl) piperazinyl)-4-oxo-1,4-dihydroquinolin-3-carboxylic acid [Compound I-9]
antibacterial action with respect to gram-positive microorganisms [1]: comparable with the comparison drugs
antibacterial activity against the microorganism strains under study [2]: most active
MIC, S. typhimurium [3]: 4 mg/L
MIC, E. coli [4]: 64 mg/L
MIC, S. aureus [5]: 0.5 mg/L
MIC, P. aerugenosa [6]: >64 mg/L
MIC, S. epidermidis [7]: 8 mg/L
MIC, M. luteus [8]: 2 mg/L
MIC, B. subtilis [9]: 4 mg/L
